Measurements reported in patent US11767282B2, “Composition biologically active to stenoma catenifer and sustained release preparation comprising the same for controlling insect pest” (Shin-Etsu Chemical Co., Ltd., priority 2021, dated 2023).
Entries after “also recorded” stand apart in the source; their conditions may differ.

How the values were obtained:
[1] = test system: Stenoma catenifer; conditions: Stenoma catenifer males; Millar et al. 2008, Hoddle et al. 2009; cited from earlier work
[2] = test system: Stenoma catenifer; assay: field trap evaluation of sustained release preparations (white adhesive trap); format: in vivo; conditions: field traps, versus (9Z)-9,13-tetradecadien-11-ynal (1) alone
Source text: A white adhesive trap was used for evaluation of the sustained release preparation. […] An adhesive substance is placed to the upper surface of the bottom plate, and the sustained release preparation A is directly mounted on the adhesive surface for use. In other words, the white adhesive trap has the structure in which only insect pests that come close to the sustained release preparation are captured, and the capture of untargeted insect pests are avoided as much as possible.
In the period of from September 23 and Nov. 25, 2019, the traps containing the respective sustained release preparations were installed in the orchards in which Stenoma catenifer lived. Adult male insect pests captured and killed in each trap were counted every 7 days. The control effect was evaluated by determining the relative value of the number of the insect pests captured by the sustained release preparation of Example 1 when regarding the total number of insect pests captured by the sustained release preparation of later-described Example 2 as 100.

[3] = test system: tomato fruit borer (Neoleucinodes elegantalis); conditions: added to sex pheromone main component (11E)-11-hexadecenol; Cabrera, J. Chem. Ecol. 2001; cited from earlier work

| SMILES | effect on attraction number in field attraction tests [1] | also measured |
| --- | --- | --- |
| CCCCC/C=C\C/C=C\CCCCCCCCCCCCC [(6Z,9Z)-6,9-tricosadiene] | did not affect the attraction number |  |
| C=CC#C/C=C/CCCCCCCC=O [(9E)-9,13-tetradecadien-11-ynal] |  | number of male adult insect pests captured compared with the comparative attractant [2]: increase in the total number of the captured insect pests |
| C=CC#C/C=C\CCCCCCCCO [(9Z)-9,13-tetradecadien-11-yn-1-ol] | reduced the attraction number; also recorded: attraction inhibitor |  |
| C=CC#C/C=C\CCCCCCCC=O [(9Z)-9,13-tetradecadien-11-ynal] | highest activity among the many attractant compositions; also recorded: attracted Stenoma catenifer |  |
| CCCC/C=C\CCCCCCCCCCO [(11Z)-11-hexadecenol] |  | effect of addition on attracted number [3]: greatly reduce the attracted number |
